Results reported in patent US5470877A, “Uses of perillic acid methyl ester” (Wisconsin Alumni Research Foundation, priority 1994, dated 1995).
Entries after “also recorded” stand apart in the source; their conditions may differ. Read-outs that look alike come from different tables or passages of the source.

Assays:
[1] = Plasma metabolite identification and quantitation in rats; assay type: in vivo, Wistar-Furth rat; conditions: for DHPA (% total) / DHPAME (% total) / LIM/POH (% total) / PA (% total) / PAME (% total) / mM LIM/POH: plasma
Protocol: Control animals received oil alone. At the chosen time points, rats were anesthetized with ether and blood was collected into heparinized tubes (Heparin (Sigma, Grade II), at 20 mg/ml in 0.9% saline). Plasma was removed following centrifugation and stored at -20° C.
For quantitation of chronic plasma metabolite levels of perillyl alcohol, female WF rats were housed individually and fed fresh diet daily. The afternoon before blood collection, all rats were given approximately 20 grams of the appropriate diet and allowed to eat ad. libitum for 18 hours. Food consumption data was determined the next morning and the rats were bled within 2 hours following food removal.
Briefly, 5 μl of a 10 mM solution of perillaldehyde was added to 50 μl plasma as an internal standard for quantitation. The plasma was mixed with an equal volume of n-butanol:acetonitrile (1:1, v/v), after which another volume of saturated potassium phosphate was added. After vortexing, the samples were centrifuged and the organic layer removed from the top.
Plasma extracts were analyzed using a Hewlett-Packard 5891 gas chromatograph equipped with a flame-ionization detector or a Hewlett-Packard 5890 chromatograph equipped with a 5971A mass-selective detector, both with 30 m Supelco SPB-5 columns. The temperature program was 90° C. for 4 minutes, increasing by 10° C./minute, followed by 15 minutes at 275° C. The split ratio was 1:10 and the linear velocity was 1.1 ml/minute. Standard curves were generated by adding 5 μl rat plasma. Standards were then extracted and analyzed by capillary gas chromatography. The ratio of the terpene peak area/perillaldehyde peak area versus the concentration of terpene in the sample was plotted.

[2] = tested on: CoQ9 and cholesterol synthesis; assay: Mevalonate metabolism: CoQ9 and cholesterol synthesis in NIH3T3 cells; assay type: cell-based, mouse; conditions: for activity at 1000 µM: Mus musculus, NIH3T3, 3 h, average of four experiments ± SD
Protocol: Analysis of Mevalonate Metabolism. NIH3T3 cells were grown in Dulbecco's modified Eagle's medium supplemented with 10% calf serum. […] The cells were then trypsinized, washed and resuspended in phosphate-buffered saline. The protein concentrations were determined using a bicinchoninic acid protein assay (Shihabi, et al, Ann. Clin. Lab. Sci. 18:235-239, 1988). Samples containing equal amount of protein were spotted on TLC plates with or without acetone extraction (Maziere, et al, J. Biochem. Biophys. Methods 14:267-272, 1987.) The TLC plates were developed with hexane/diethyl ether/acetic acid (70:30:2, v/v) (Maziere, et al, Supra). Dry plates were analyzed for radioactivity using a phosphorimager (Molecular Dynamics).
Labeling Cells with [^14 C(U)] Tyrosine. NIH3T3 cells were treated with 30 μM lovastatin for 18 hours and then incubated in fresh tyrosine deficient minimum essential medium (supplemented with 10% dialyzed fetal bovine serum) containing 400 μM mevalonic acid lactone (Sigma) and 14 μCi/ml [^14 C(U)] tyrosine (500 mCi/mmol) for 3 hours in the absence or presence of 1 mM perillyl alcohol. Cells were harvested and lipids were analyzed as described above.
HPLC Analysis of Unsaponifiable Lipids. Cells were labeled with [2-^14 C] mevalonolactone as described above and then were saponified as described by Popjak et al, J. Lipid Res, 26:831-841, 1985. Unsaponifiable lipids were extracted with petroleum ether, dried and dissolved in chloroform methanol (1:1, v/v). Reverse phase HPLC using a Bio-Rad ODS-5S (25 cm×4 mm) column fitted with a Sigma hypersil ODS guard column was run isocratically with methanol/acetonitrile/water (72.5:22.5:5, v/v) at a flow rate of 0.8 ml/min. The effluent was monitored at 210 nm, the fractions were collected, and radioactivities were determined with a Beckman LS 6000IC Scintillation Counter.

[3] = chronic week 3, 10% LIM or 2% POH diet
[4] = chronic week 5, 10% LIM or 2% POH diet
[5] = chronic week 10, 10% LIM or 2% POH diet

Which “parent detection in plasma” value ([1]; acute gavage, any time point including 30 minutes) does the source give for `C=C(C)[C@@H]1CC=C(CO)CC1` [perillyl alcohol] here?
The value was “not detected at any time point including 30 minutes post-gavage”.

What about the major metabolite detected ([1]; acute gavage, rat) of the same compound?
The major metabolite detected was “perillic acid”.

And the “perillic and dihydroperillic acids in plasma” value ([1]; acutely administered, rat)?
The value was “detectable at 24 hours post-administration”.

What about the “parent compound in plasma” value ([1]; chronically fed rats) of the same compound?
Its value is “Neither limonene nor perillyl alcohol was detected”.

And the “DHPA (% total)” value ([1]; acute 1 g/kg, 4 hour)?
Its value is 5 % total.

What about the “DHPAME (% total)” value ([1]; acute 1 g/kg, 4 hour) of the same compound?
Its value is < 1 % total.

And the “LIM/POH (% total)” value ([1]; acute 1 g/kg, 4 hour)?
The value was 0 % total.

What about the “PA (% total)” value ([1]; acute 1 g/kg, 4 hour) of the same compound?
The value was 71 % total.

And the “PAME (% total)” value ([1]; acute 1 g/kg, 4 hour)?
Its value is 24 % total.

And the “mM LIM/POH” value ([1]; acute 1 g/kg, 4 hour, mean ± SEM)?
Its value is 0.00 ± 0.00 mM.

And the “DHPA (% total)” value [1, 3]?
Its value is 19 % total.

What about the “DHPAME (% total)” value [1, 3] of the same compound?
Its value is 2 % total.

And the “LIM/POH (% total)” value [1, 3]?
Its value is 0 % total.

What about the “PA (% total)” value [1, 3] of the same compound?
The value was 69 % total.

What about the “PAME (% total)” value [1, 3] of the same compound?
Its value is 10 % total.

What about the “mM LIM/POH” value [1, 3] of the same compound?
Its value is 0 mM.

What about the “DHPA (% total)” value [1, 4] of the same compound?
The value was 25 % total.

What about the “DHPAME (% total)” value [1, 4] of the same compound?
The value was 3 % total.

And the “LIM/POH (% total)” value [1, 4]?
Its value is 0 % total.

What about the “PA (% total)” value [1, 4] of the same compound?
The value was 62 % total.

And the “PAME (% total)” value [1, 4]?
Its value is 10 % total.

What about the “mM LIM/POH” value [1, 4] of the same compound?
Its value is 0 mM.

And the “DHPA (% total)” value [1, 5]?
Its value is 28 % total.

And the “DHPAME (% total)” value [1, 5]?
The value was 4 % total.

And the “LIM/POH (% total)” value [1, 5]?
The value was 0 % total.

And the “PA (% total)” value [1, 5]?
Its value is 59 % total.

And the “PAME (% total)” value [1, 5]?
Its value is 10 % total.

And the “mM LIM/POH” value [1, 5]?
Its value is 0 mM.

What about the “rate of conversion to metabolites” value ([1]; rat) of the same compound?
The value was “rapidly metabolized to the same metabolites as limonene; also recorded: more rapidly converted to metabolites than limonene”.

What about the major plasma metabolites ([1]; rat, 1 g/kg gavage, 4 hours) of the same compound?
The major plasma metabolites was “perillic acid and dihydroperillic acid”.

What about the minor plasma metabolites ([1]; rat, 1 g/kg gavage, 4 hours) of the same compound?
The minor plasma metabolites was “minor levels of these acids' methyl esters”.

And the “CoQ9 labeled from [14C(U)] tyrosine” value ([2]; 1 mM perillyl alcohol)?
Its value is “greatly reduced”.

And the activity at 1000 µM ([2]; 1 mM perillyl alcohol, read-out: Cholesterol + Lathosterol synthesis (% of Control))?
Its activity at 1000 µM is 107 ± 16.5%.

And the activity at 1000 µM ([2]; 1 mM perillyl alcohol, read-out: Cholesterol synthesis (% of Control))?
The activity at 1000 µM was 26.7 ± 4.7%.

What about the activity at 1000 µM ([2]; 1 mM perillyl alcohol, read-out: CoQ9 synthesis (% of Control)) of the same compound?
Its activity at 1000 µM is 14.1 ± 4.6%.

And the activity at 1000 µM ([2]; 1 mM perillyl alcohol, read-out: Lathosterol synthesis (% of Control))?
The activity at 1000 µM was 427 ± 130%.

What about the “recovery of labeled CoQ9” value ([2]; cold control medium up to 6 hours post-labeling) of the same compound?
Its value is “labeled CoQ9 could not be observed”.

And the “block of cholesterol synthesis on continued exposure” value ([2]; continually grown in 1 mM perillyl alcohol)?
The value was “maintained the block of cholesterol synthesis”.

And the “conversion of labeled cholesterol back to lathosterol” value ([2]; reincubated in 1 mM perillyl alcohol after control medium)?
The value was “did not convert labeled cholesterol back to labeled lathosterol”.

What about the “neutral lipid metabolism changes in treated cells” value ([2]; spot X = CoQ9, Y = cholesterol, Z = lathosterol) of the same compound?
The value was “inhibition of two spots (X and Y) and the increased accumulation of a third spot (Z)”.

And the “neutral lipid changes after [14C]squalene labeling” value ([2]; spot Y = cholesterol, spot Z = lathosterol)?
Its value is “inhibition of spot Y and the accumulation of spot Z”.

And the “reversibility of block of cholesterol synthesis” value ([2]; switched to control medium, 3 hour chase)?
Its value is “Lathosterol was observed to be converted to cholesterol”.
